This passage reports % of control and % of inhibition results from ChEMBL document CHEMBL5465560, “Selectivity Literature for EUbOPEN Chemogenomic Library” (2024).

For test [1], the target named is T1, Ephrin type-A receptor 3 (Homo sapiens) (UniProt P29320).
T1 sequence (whole entry): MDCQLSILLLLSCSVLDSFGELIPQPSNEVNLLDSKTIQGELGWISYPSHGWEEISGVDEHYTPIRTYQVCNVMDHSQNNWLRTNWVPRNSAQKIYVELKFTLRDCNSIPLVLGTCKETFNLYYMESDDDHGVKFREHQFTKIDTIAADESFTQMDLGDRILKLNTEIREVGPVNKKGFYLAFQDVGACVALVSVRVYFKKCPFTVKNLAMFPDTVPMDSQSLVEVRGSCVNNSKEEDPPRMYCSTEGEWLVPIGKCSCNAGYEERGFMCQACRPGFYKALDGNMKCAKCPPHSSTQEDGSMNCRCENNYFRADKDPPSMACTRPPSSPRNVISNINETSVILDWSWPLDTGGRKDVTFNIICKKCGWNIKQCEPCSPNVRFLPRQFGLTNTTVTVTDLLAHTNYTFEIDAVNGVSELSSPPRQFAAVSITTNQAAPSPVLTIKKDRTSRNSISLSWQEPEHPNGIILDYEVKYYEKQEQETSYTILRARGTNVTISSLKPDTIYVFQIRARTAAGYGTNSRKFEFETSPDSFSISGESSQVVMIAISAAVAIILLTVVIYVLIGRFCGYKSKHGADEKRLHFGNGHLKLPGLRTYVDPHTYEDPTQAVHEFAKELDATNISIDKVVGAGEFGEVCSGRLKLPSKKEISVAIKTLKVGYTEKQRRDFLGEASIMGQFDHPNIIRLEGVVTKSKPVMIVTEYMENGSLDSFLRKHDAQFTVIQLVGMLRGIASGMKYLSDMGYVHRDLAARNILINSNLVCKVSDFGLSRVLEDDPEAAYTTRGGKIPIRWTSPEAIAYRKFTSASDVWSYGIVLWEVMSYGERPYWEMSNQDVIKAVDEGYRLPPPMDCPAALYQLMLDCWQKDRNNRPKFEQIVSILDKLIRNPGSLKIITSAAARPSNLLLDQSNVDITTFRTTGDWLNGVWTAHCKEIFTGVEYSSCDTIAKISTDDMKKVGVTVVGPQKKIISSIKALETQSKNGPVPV
As to the kind of experiment: Selectivity interaction (KinomeScan (DiscoverX)) EUB0000595a EPHA3. Particulars: at 10 µM.

For test [2], the target named is SRSF protein kinase 1 (Homo sapiens, UniProt Q96SB4). Kind of test: Selectivity interaction (KinomeScan (DiscoverX)) EUB0000695a SRPK1. Particulars: at 100 nM.
Chain of SRSF protein kinase 1 (Q96SB4 whole entry): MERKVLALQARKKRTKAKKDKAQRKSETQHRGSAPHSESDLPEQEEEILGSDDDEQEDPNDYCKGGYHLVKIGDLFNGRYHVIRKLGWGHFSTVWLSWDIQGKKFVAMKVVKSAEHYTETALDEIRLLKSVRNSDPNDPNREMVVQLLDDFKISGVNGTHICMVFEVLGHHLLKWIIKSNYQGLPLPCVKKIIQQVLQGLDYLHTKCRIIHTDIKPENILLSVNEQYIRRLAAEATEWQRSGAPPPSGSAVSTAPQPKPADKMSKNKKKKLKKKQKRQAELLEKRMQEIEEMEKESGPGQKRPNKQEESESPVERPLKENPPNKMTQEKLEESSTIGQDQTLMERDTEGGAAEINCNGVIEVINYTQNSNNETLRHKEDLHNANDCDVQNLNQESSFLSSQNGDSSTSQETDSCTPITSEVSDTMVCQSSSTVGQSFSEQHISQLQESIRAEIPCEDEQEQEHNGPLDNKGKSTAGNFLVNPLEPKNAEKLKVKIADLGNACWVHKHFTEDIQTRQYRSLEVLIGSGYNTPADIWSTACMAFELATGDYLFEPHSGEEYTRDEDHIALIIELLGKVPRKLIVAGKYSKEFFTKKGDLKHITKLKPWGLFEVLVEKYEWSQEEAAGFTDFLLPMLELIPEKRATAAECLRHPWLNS
The target of test [3] is T2, Ephrin type-B receptor 4 (Homo sapiens) (UniProt P54760).
T2 sequence (whole entry): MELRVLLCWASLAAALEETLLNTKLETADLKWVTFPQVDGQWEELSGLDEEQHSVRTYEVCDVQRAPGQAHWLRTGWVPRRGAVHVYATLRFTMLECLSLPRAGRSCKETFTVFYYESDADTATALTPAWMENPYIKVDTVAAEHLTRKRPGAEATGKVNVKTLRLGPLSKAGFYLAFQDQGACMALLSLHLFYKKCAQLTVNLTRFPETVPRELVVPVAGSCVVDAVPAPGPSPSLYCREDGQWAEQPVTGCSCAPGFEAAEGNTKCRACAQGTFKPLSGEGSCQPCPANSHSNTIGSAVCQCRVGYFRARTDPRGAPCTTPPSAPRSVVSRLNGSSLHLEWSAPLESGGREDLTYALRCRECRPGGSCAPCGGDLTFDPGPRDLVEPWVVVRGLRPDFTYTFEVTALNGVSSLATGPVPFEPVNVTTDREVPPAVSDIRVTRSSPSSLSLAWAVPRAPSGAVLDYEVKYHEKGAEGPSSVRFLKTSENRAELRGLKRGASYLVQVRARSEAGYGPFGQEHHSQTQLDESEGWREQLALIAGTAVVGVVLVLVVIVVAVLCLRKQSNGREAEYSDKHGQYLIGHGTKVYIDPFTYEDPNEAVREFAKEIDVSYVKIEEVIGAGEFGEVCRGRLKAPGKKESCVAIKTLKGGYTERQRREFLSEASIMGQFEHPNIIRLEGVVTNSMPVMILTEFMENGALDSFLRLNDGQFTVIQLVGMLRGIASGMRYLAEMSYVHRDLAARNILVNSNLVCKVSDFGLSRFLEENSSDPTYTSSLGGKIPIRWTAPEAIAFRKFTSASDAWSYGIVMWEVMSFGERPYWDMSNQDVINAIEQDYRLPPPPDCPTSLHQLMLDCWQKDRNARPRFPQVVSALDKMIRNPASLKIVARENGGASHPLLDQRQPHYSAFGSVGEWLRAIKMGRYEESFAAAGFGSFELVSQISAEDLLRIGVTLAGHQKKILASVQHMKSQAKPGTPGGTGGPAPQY
As to the kind of experiment: Selectivity interaction (Kinase panel (Invitrogen)) EUB0000639a EPHB4. Conditions: at 200 nM.

For test [4], the target named is T3, Tyrosine-protein kinase JAK2 (Homo sapiens, UniProt O60674). Kind of test: Selectivity interaction (Kinase panel (Invitrogen)) EUB0000639a JAK2. Particulars: at 200 nM.
T3 sequence (O60674 whole entry): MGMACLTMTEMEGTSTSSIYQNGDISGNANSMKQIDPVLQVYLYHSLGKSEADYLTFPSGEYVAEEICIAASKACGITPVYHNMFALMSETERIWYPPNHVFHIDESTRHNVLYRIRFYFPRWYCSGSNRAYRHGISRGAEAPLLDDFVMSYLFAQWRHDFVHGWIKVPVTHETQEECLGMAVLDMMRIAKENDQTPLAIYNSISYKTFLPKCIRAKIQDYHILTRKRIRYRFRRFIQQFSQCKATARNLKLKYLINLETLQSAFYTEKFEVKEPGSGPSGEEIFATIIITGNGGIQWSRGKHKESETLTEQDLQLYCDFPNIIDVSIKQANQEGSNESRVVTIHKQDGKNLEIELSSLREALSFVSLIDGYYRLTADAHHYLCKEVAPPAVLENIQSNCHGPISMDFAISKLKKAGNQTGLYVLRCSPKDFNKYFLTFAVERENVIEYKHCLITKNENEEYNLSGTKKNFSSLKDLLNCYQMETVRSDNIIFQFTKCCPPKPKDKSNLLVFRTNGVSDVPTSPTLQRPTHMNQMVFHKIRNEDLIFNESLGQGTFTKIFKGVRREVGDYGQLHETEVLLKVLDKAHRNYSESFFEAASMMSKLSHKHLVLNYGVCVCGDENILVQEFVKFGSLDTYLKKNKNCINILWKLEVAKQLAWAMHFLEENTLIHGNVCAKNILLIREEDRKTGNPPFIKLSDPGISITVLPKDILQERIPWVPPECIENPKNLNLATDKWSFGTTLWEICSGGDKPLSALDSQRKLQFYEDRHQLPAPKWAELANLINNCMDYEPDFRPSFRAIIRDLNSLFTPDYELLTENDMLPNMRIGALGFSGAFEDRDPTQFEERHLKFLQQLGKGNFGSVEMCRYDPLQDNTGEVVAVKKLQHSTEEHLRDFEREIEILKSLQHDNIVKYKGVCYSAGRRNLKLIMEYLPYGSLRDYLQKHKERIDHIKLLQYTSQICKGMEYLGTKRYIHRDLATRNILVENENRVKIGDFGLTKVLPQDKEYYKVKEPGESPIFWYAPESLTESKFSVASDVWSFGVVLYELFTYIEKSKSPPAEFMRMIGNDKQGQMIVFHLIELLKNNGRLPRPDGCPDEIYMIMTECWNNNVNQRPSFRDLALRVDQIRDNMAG
For test [5], the target named is T3, Tyrosine-protein kinase JAK2. Kind of test: Selectivity interaction (KinomeScan (DiscoverX)) EUB0000045b JAK2.
For test [6], the target named is Insulin receptor (Homo sapiens, UniProt P06213). Kind of test: Selectivity interaction (ProQinase) EUB0000171b INSR.
Chain of Insulin receptor (P06213 28-758 limits assumed): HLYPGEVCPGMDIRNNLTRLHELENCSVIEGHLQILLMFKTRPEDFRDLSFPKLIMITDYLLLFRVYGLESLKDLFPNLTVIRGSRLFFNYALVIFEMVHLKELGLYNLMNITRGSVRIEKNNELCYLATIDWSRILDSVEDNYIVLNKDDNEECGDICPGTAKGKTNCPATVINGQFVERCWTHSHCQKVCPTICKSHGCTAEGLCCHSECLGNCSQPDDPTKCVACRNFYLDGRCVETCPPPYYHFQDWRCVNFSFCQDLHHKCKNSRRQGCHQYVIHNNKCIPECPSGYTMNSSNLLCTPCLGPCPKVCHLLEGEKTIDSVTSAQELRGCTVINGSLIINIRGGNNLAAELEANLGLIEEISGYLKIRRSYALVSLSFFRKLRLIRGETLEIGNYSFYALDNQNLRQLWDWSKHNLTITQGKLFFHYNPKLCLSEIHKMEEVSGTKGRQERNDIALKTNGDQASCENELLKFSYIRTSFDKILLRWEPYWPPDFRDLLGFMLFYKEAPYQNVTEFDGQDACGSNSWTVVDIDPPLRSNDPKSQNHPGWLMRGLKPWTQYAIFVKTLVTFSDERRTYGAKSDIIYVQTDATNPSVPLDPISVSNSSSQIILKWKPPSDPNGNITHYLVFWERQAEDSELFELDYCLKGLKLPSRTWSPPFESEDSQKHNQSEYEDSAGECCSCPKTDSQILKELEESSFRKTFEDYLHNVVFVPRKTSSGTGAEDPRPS
Chain of Insulin receptor (P06213 763-1382 limits assumed): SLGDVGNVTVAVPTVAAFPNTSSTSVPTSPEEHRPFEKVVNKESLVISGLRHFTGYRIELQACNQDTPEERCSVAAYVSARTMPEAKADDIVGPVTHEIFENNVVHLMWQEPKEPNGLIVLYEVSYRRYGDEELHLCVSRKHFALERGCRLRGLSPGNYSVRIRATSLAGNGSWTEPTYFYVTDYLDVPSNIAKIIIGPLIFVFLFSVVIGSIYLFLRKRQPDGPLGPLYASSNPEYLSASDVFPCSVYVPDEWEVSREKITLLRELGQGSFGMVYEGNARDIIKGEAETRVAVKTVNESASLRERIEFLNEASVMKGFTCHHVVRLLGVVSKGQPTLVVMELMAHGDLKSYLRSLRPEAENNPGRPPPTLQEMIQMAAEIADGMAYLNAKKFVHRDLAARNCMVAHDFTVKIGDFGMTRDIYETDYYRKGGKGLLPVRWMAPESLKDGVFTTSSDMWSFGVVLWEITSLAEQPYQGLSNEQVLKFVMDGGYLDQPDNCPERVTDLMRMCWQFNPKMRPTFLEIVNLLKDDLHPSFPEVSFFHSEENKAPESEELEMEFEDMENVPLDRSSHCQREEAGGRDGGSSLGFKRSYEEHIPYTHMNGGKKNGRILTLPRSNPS
In test [7] the target is High affinity nerve growth factor receptor (Homo sapiens, UniProt P04629). Kind of test: Selectivity interaction (Upstate Kinase Profiler service (Millipore)) EUB0000056c NTRK1. Conditions: at 1 µM.
Test [8] concerns the target PAS domain-containing serine/threonine-protein kinase (Homo sapiens) (UniProt Q96RG2). As to the kind of experiment: Selectivity interaction (Upstate Kinase Profiler service (Millipore)) EUB0000056c PASK. Conditions: at 1 µM.
The target of test [9] is T4, Rhodopsin kinase GRK7 (Homo sapiens) (UniProt Q8WTQ7).
T4 sequence (whole entry): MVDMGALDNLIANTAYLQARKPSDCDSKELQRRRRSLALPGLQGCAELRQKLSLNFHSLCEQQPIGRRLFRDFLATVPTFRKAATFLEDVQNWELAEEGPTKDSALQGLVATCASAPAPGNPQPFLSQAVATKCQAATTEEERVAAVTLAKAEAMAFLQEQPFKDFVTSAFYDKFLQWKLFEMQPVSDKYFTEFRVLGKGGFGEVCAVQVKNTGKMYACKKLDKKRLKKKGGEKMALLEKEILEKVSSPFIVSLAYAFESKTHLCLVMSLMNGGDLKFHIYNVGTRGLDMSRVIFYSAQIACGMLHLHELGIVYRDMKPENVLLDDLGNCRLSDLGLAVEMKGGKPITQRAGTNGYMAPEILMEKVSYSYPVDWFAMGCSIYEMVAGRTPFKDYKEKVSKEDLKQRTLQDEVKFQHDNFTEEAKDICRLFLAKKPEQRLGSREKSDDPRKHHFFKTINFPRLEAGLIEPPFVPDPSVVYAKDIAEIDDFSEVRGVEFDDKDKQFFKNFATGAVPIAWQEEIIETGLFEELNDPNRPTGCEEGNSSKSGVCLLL
Kind of test: Selectivity interaction (KinomeScan (DiscoverX)) EUB0000092b GRK7. Particulars: at 10 µM.

Chain of PAS domain-containing serine/threonine-protein kinase (Homo sapiens) (Q96RG2 whole entry, the tested form may be a part): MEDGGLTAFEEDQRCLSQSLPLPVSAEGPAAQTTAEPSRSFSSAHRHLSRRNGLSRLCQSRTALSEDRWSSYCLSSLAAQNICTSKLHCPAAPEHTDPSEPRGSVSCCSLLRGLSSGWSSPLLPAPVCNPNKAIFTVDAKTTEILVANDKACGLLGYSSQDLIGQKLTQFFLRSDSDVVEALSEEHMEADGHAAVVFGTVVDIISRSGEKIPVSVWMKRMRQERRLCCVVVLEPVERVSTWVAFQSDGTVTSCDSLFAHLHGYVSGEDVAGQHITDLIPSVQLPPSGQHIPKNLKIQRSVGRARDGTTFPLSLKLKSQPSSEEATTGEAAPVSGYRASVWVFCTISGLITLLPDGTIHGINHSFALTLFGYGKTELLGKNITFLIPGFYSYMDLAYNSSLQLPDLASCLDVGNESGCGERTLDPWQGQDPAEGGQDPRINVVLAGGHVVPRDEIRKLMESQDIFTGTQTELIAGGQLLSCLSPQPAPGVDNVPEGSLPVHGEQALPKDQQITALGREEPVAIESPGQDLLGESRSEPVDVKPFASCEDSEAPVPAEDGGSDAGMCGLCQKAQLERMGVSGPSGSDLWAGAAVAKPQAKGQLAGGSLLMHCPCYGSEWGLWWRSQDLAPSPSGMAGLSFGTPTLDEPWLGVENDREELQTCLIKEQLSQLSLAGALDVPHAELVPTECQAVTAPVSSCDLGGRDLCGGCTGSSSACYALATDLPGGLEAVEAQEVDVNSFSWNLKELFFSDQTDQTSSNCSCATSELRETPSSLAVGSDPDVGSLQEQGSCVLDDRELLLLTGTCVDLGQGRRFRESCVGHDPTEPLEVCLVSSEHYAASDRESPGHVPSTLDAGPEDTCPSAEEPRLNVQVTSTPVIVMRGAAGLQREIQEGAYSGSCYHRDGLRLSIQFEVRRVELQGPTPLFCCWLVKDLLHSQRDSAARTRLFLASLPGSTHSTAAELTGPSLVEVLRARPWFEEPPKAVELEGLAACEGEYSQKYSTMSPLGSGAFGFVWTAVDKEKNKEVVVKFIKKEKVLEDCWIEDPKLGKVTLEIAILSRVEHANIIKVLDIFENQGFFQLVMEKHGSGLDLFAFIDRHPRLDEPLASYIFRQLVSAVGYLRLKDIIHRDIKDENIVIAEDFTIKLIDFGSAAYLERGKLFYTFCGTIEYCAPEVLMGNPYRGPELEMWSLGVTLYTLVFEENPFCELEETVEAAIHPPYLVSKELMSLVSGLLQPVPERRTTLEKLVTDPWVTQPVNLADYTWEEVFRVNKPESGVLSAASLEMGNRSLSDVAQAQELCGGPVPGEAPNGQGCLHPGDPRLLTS

Regarding `COCC(=O)NC/C=C/c1ccc2ncnc(Nc3ccc(Oc4ccc(C)nc4)c(C)c3)c2c1` [CP-724714], in [1], the % of control came out at 97%.
In test [2], `Cc1cc(F)c(C(=O)Nc2cccc(-c3nncn3C(C)C)n2)cc1-n1cnc(C2CC2)c1` gave a % of control of 91%.
Consider `CC[C@@H]1[C@H](F)C(=O)N[C@@H]1COc1nccc2cc(C(N)=O)c(OC)cc12` [ZIMLOVISERTIB], for which the % of inhibition in test [3] was 4.33%; in [4] it was 17.6%.
As for `C=CC(=O)Nc1cc(-n2c(=O)ccc3cnc4ccc(-c5ccc(NS(C)(=O)=O)cc5)cc4c32)ccc1C`, the % of control was 86% in test [5] (at 1 µM) and 100% in [5] (at 10 µM).
As for `C=CC(=O)Nc1cccc(C(=O)Nc2ccc(Nc3cc(-c4[nH]c(SC)nc4C)ccn3)cc2)c1`, the results for the % of control in test [6] (at 1 µM) and in [6] (at 5 µM) were 91% and 83%, respectively.
`Cc1ccc(-c2ccc3c(ccc4sc5c(c43)NC[C@@H](C)NC5=O)n2)cn1`: the % of inhibition worked out at 3% in [7] and 44% in test [8].
In test [9], `CCC(=O)N1CCN(c2ccc(-n3c(=O)ccc4cnc5ccc(-c6cnc7ccccc7c6)cc5c43)cc2C(F)(F)F)CC1` had a % of control of 100%.
